Test results from patent US20060165731A1, “Vaccines” (British Technology Group Ltd., priority 1986, published 2006).

Experiments:
Assay type in all cases: in vivo, Eimeria (in Cobb broiler chickens)
[1] = system: seven homologous strains of each of the seven species of Eimeria; assay: Vaccine trial in Cobb broiler chickens, homologous challenge
Description: (§1) The vaccine of Example 3 was used in a trial conducted on 4,480 Cobb broiler chickens kept in floor pens. The concentration of xanthan gum in the vaccine was adjusted so that administration of 140 doses of vaccine to each drinking vessel provided a final xanthan gum concentration of 0.03%. The trial was designed to compare the performance of birds vaccinated with live attenuated coccidiosis vaccine of the invention and birds fed the coccidiostat, monensin, in the face of a challenge with seven homologous or seven heterologous strains of each of the seven species of Eimeria. The heterologous strains were chosen on the basis that they were either thought to be more pathogenic than the homologous ones or antigenically distinct.
(§2) Birds were penned in groups of 140. Four pens were allocated to each treatment and two pens were allocated to each control group. […] The allocation of pens to treatment was randomised throughout the broiler house. The design of the trial was as follows:
(§3) The vaccine was administered via the drinking water. The birds were fed a ration based on a commercial formulation which included the antibiotic growth promoter avoparcin at 10 ppm. The anticoccidial drugs were administered in the feed.
(§4) It should be noted that, in order to prevent infection by wild Eimeria strains, and consequent development of immunity, the two control groups were fed robenidine (30 ppm) for 28 days. One group received a heterologous challenge and the other received a homologous challenge.
(§5) All birds received an individual oral challenge administered by inoculation into the crop on day 31. The numbers of oocysts of each species in the challenge doses were as follows:—
(§6) Liveweights and cumulative feed intakes were measured on days 30, 37 and 49. Feed conversion ratios were calculated by dividing the feed intake by the gain in liveweight from day 1. Counts of oocysts in the litter were made for each pen at weekly intervals. On day 37, a sample of 5 birds from each pen (total 160) was culled and coccidiosis lesion scores were estimated. Scores were made on a scale of 0 to 3.5 in ascending severity of the lesions symptomatic of infection with E. acervulina, E. brunetti, E. maxima/necatrix (grouped together because they are difficult to distinguish) and E. tenella. Mean lesion scores were calculated.

[2] = system: seven heterologous strains of each of the seven species of Eimeria; assay: Vaccine trial in Cobb broiler chickens, heterologous challenge
Description: as §1, §2, §3, §4, §5, §6

[3] = system: seven homologous or seven heterologous strains of each of the seven species of Eimeria; assay: Vaccine trial in Cobb broiler chickens, overall (homologous and heterologous challenge)
Description: as §1, §2
The vaccine was administered via the drinking water. The birds were fed a ration based on a commercial formulation which included the antibiotic growth promoter avoparcin at 10 ppm. […]
Liveweights and cumulative feed intakes were measured on days 30, 37 and 49. Feed conversion ratios were calculated by dividing the feed intake by the gain in liveweight from day 1. […] Mean lesion scores were calculated.

## CC[C@@]1([C@@H]2O[C@@H]([C@H]3O[C@@](O)(CO)[C@H](C)C[C@@H]3C)C[C@@H]2C)CC[C@H]([C@]2(C)CC[C@]3(C[C@H](O)[C@@H](C)[C@@H]([C@@H](C)[C@@H](OC)[C@H](C)C(=O)O)O3)O2)O1 [Monensin, monensin]
[1]; Homologous challenge, day 37, scale of 0 to 3.5, control 0.2
  Mean Lesion Score E. acervulina: 0
[1]; Homologous challenge, day 37, scale of 0 to 3.5, control 0.40
  Mean Lesion Score E. brunetti: 0.03
[1]; Homologous challenge, day 37, scale of 0 to 3.5, control 1.25
  Mean Lesion Score E. maxima/necatrix: 0.13
[1]; Homologous challenge, day 37, scale of 0 to 3.5, control 2.25
  Mean Lesion Score E. tenella: 0.20
[1]; day 49, Homologous Challenge on day 31, control 2225
  LIVEWEIGHTS: 2489 g/bird
[2]; Heterologous challenge, day 37, scale of 0 to 3.5, control 0.30
  Mean Lesion Score E. acervulina: 0.10
[2]; Heterologous challenge, day 37, scale of 0 to 3.5, control 0.70
  Mean Lesion Score E. brunetti: 0
[2]; Heterologous challenge, day 37, scale of 0 to 3.5, control 2.00
  Mean Lesion Score E. maxima/necatrix: 0.95
[2]; Heterologous challenge, day 37, scale of 0 to 3.5, control 2.65
  Mean Lesion Score E. tenella: 1.53
[2]; after challenge with heterologous strains, on average, very high pen to pen variation
  Counts of oocysts in the litter, pens of monensin treated birds relative to pens of vaccinated birds: two or three times higher
[2]; day 49, Heterologous Challenge on day 31, control 2197
  LIVEWEIGHTS: 2407 g/bird
[2]; in each case lower than the controls
  Lesion scores for heterologous E. maxima/necatrix: Slightly elevated scores
[3]; compared with controls
  Lesion scores after either homologous or heterologous challenge: lower lesion scores
[3]; vaccine compared with monensin
  Protecting against coccidial challenge (performance of the birds, overall): equally effective
